Experimental data as given in US8119663B2, “Heteroaryl-substituted piperidines” (Bayer Pharma Aktiengesellschaft, priority 2007, dated 2012).

Columns and labels:
[1] = test system: platelet-rich plasma (platelet aggregation triggered by thrombin receptor agonist TRAP6, SFLLRN); experiment: Platelet aggregation in plasma (TRAP6/SFLLRN-induced, Born turbidimetry); type: cell-based; conditions: Homo sapiens; platelet-rich plasma of healthy volunteers; 10 min incubation at 37° C.; light transmission 5 minutes after agonist; concentration at which aggregation is 50% inhibited
Experimental: 1.c) Platelet Aggregation in Plasma
To determine the platelet aggregation, blood of healthy volunteers of both sexes who had not received any thrombocyte aggregation-influencing medication for the last ten days is used. The blood is drawn into monovettes (Sarstedt, Nümbrecht, Germany) which contain, as anticoagulant, sodium citrate 3.8% (1 part of citrate+9 parts of blood). To obtain platelet-rich plasma, the citrated whole blood is centrifuged at 140 g for 20 min.
For the aggregation measurements, aliquots of the platelet-rich plasma are incubated with increasing concentrations of test substance at 37° C. for 10 min. Aggregation is then triggered by addition of a thrombin receptor agonist (TRAP6, SFLLRN) in an aggregometer and determined at 37° C. using the turbidimetric method according Born (Born, G. V. R., Cross M. J., The Aggregation of Blood Platelets; J. Physiol. 1963, 168, 178-195). The SFLLRN concentration giving maximum aggregation is individually determined for each donor.
To calculate the inhibitory effect, the increase of light transmission (amplitude of the aggregation curve in %) is determined 5 minutes after addition of the agonist in the presence and absence of test substance, and the inhibition is calculated. The concentration at which the aggregation is 50% inhibited is calculated from the inhibition curves.

[2] = target: T1, human protease activated receptor 1 (PAR1) (Homo sapiens, UniProt P25116); experiment: Cellular functional in vitro test (aequorin luminescence, PAR1 test cell); type: cell-based; conditions: recombinant HEK293-derived cell line expressing aequorin; PAR1 agonist added at its EC50 5 minutes after test substance
T1 construct: the cell stably expresses the endogenous human PAR1 receptor and the endogenous purinergic receptor P2Y2; endogenous in cells; host or cells: HEK293-derived recombinant cell line constitutively expressing mitochondrial aequorin
T1 sequence (P25116 22-425): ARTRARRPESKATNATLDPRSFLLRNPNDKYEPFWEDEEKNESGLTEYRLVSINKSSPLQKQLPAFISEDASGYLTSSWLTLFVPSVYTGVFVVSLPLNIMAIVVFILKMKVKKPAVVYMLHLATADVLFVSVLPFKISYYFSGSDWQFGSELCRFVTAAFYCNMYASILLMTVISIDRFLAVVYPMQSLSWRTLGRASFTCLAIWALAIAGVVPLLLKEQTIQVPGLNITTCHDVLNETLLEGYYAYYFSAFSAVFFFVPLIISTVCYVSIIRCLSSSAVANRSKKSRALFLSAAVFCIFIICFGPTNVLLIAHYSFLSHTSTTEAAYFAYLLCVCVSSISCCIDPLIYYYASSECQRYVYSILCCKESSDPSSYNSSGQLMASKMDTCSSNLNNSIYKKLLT
Source text: 1.a) Cellular Functional In vitro Test
A recombinant cell line is used to identify […] of the human protease activated receptor 1 (PAR1) and to quantify the activity of the substances described herein. The cell is originally derived from a human embryonal kidney cell (HEK293; ATCC: American Type Culture Collection, Manassas, Va. 20108, USA). The test cell line constitutively expresses a modified form of the calcium-sensitive photoprotein aequorin which, after reconstitution with the cofactor coelenterazine, emits light when the free calcium concentration in the inner mitochondrial compartment is increased (Rizzuto R, Simpson A W, Brini M, Pozzan T.; Nature 1992, 358, 325-327). Additionally, the cell stably expresses the endogenous human PAR1 receptor and the endogenous purinergic receptor P2Y2. The resulting PAR1 test cell responds to stimulation of the endogenous PAR1 or P2Y2 receptor with an intracellular release of calcium ions, which can be quantified through resulting aequorin luminescence with a suitable luminometer (Milligan G, Marshall F, Rees S, Trends in Pharmacological Sciences 1996, 17, 235-237).
For testing the substance specificity, its effect after activation of the endogenous PAR1 receptor is compared to the effect after activation of the endogenous purinergic P2Y2 receptor which utilizes the same intracellular signal path.
Test procedure: The cells are plated out two days (48 hours) before the test in culture medium (DMEM F12, supplemented with 10% FCS, 2 mM glutamine, 20 mM HEPES, 1.4 mM pyruvate, 0.1 mg/ml gentamycin, 0.15% Na bicarbonate; BioWhittaker Cat.# BE04-687Q; B-4800 Verviers, Belgium) in 384-well microtitre plates and kept in a cell incubator (96% atmospheric humidity, 5% V/V CO2, 37° C.). On the day of the test, the culture medium is replaced by a tyrode solution (in mM: 140NaCl, 5l KCl, 1MgCl2, 2CaCl2, 20 glucose, 20 HEPES), which additionally contains the cofactor coelenterazine (25 μM) and glutathione (4 mM), and the microtitre plate is then incubated for a further 3-4 hours. The test substances are then pipetted onto the microtitre plate, and 5 minutes after the transfer of the test substances into the wells of the microtitre plate the plate is transferred into the luminometer, a PAR1 agonist concentration which corresponds to the EC50 is added and the resulting light signal is immediately measured in the luminometer. To distinguish an antagonist substance action from a toxic action, the endogenous purinergic receptor is immediately subsequently activated with agonist (ATP, final concentration 10 μM) and the resulting light signal is measured.

| SMILES | IC50 [1] | IC50 [2] |
| --- | --- | --- |
| O=C(N1CCOCC1)N1CC(c2ccc(OC(F)(F)F)cc2)CC(c2nc(-c3ccc(F)cc3F)no2)C1 (racemic) [Example 38, 4-({3-[3-(2,4-Difluorophenyl)-1,2,4-oxadiazol-5-yl]-5-[4-(trifluoromethoxy)phenyl]piperidin-1-yl}carbonyl)morpholine] | 93000 nM | 31 nM |
| CCc1ccc(C2CC(c3nc(-c4c(F)cccc4F)no3)CN(C(=O)N3CCOCC3)C2)cc1 (racemic) [Example 39, 4-({3-[3-(2,6-Difluorophenyl)-1,2,4-oxadiazol-5-yl]-5-(4-ethylphenyl)piperidin-1-yl}carbonyl)-morpholine] | 5600 nM | 6.8 nM |
| CCc1ccc(C2CC(c3nc(Cc4ccccc4Cl)no3)CN(C(=O)N3CCOCC3)C2)cc1 (racemic) [Example 60, 4-({3-[3-(2-Chlorobenzyl)-1,2,4-oxadiazol-5-yl]-5-(4-ethylphenyl)piperidin-1-yl}carbonyl)-morpholine] | 19600 nM | 10 nM |
| COCCc1noc(C2CC(c3ccc(C)c(C(F)(F)F)c3)CN(C(=O)N3CCOCC3)C2)n1 (single isomer, unassigned) [Example 459, {3-[3-(2-Methoxyethyl)-1,2,4-oxadiazol-5-yl]-5-[4-methyl-3-(trifluoromethyl)phenyl]piperidin-1-yl}(morpholin-4-yl)methanone] |  | 84.2 nM |
| CCc1ccc(C2CC(c3nc(CCOC)no3)CN(C(=O)N3CCC(O)CC3)C2)cc1 (single isomer, unassigned) [Example 549, {3-(4-Ethylphenyl)-5-[3-(2-methoxyethyl)-1,2,4-oxadiazol-5-yl]piperidin-1-yl}(4-hydroxy-piperidin-1-yl)methanone] |  | 12.5 nM |
| O=C(N1CCC(O)C1)N1CC(c2ccc(C(F)(F)F)cc2)CC(c2nc(C3CC3)no2)C1 (stereo not shown) [Example 146, {3-(3-Cyclopropyl-1,2,4-oxadiazol-5-yl)-5-[4-(trifluoromethyl)phenyl]piperidin-1-yl}(3-hydroxy-pyrrolidin-1-yl)methanone] |  | 9.39 nM |
| O=C(N1CCOCC1)N1CC(c2cccc(C(F)(F)F)c2)CC(c2nc(-c3c(F)cccc3F)no2)C1 (stereo not shown) [Example 352] |  | 4.77 nM |
| O=C(N1CCOCC1)N1CC(c2cccc(C(F)(F)F)c2)CC(c2nc(-c3cc(F)ccc3F)no2)C1 (stereo not shown) [Example 356] |  | 2.73 nM |
| COCCc1noc(C2CC(c3ccc(OC(F)(F)F)cc3)CN(C(=O)N3CCC(O)C3)C2)n1 (stereo not shown) [Example 420, (3-Hydroxypyrrolidin-1-yl) {3-[3-(2-methoxyethyl)-1,2,4-oxadiazol-5-yl]-5-[4-(trifluoromethoxy)-phenyl]piperidin-1-yl}methanone] |  | 23.8 nM |
| COCc1nc(C2CC(c3ccc(C(F)(F)F)cc3)CN(C(=O)N3CCOCC3)C2)no1 (stereo not shown) [Example 465, {3-[5-(Methoxymethyl)-1,2,4-oxadiazol-3-yl]-5-[4-(trifluoromethyl)phenyl]piperidin-1-yl}-(morpholin-4-yl)methanone] |  | 24.4 nM |
